Patent US9580487B2, “Method of treating stomach or bowel-related disorders by administering glucagon-like-peptide-2 (GLP-2) analogues” (Zealand Pharma A/S, priority 2005, dated 2017)
“Also recorded” adds a separate entry of the source. No end group written: not given here.

Experiments:
[1] = Chemical stability testing: incubation in HCl, NaOH, H2O2 or NH4HCO3 at 40° C., remaining purity by RP-HPLC; format: physicochemical; conditions: for Stability during acid hydrolysis (in words): 0.1 M HCl, 12 days; for Stability during acid hydrolysis (in words) / Purity H2O2 0.5% 3 days / Purity HCl 0.1M 12 days / Purity NH4HCO3 0.1M 6 days: 40° C.; for Purity H2O2 0.5% 3 days / Purity HCl 0.1M 12 days / Purity NH4HCO3 0.1M 6 days: 2 mg/ml, relative to the purity at T=0; for Purity H2O2 0.5% 3 days / Purity HCl 0.1M 12 days: RP-HPLC; for Purity NH4HCO3 0.1M 6 days: pH 8, RP-HPLC
Protocol: The GLP-2 analogues were dissolved in purified water and subsequently diluted in solutions containing HCl, NaOH, H2O2 or NH4HCO3. The solutions were incubated at 40° C. to produce hydrolysis, deamidation and oxidation products. The samples were analyzed by RP-HPLC and the percentage of remaining intact compound was determined as a measure for the relative stability. The major degradation products were tentatively identified by LC-MS.
The GLP-2 analogues tested and the reference Gly^2-GLP-2, ZP1559 (SEQ ID NO:54), were dissolved in water and subsequently diluted into solutions containing HCl, NaOH, H2O2 or NH4HCO3. The samples were incubated at 40° C. to generate hydrolysis, deamidation and oxidation products, respectively. The compounds were analysed by RP-HPLC for purity of the original main peak and by LC-MS for confirmation of the identity by mass of the main peak and major degradation products.
The GLP-2 analogues were first dissolved in MQW to a concentration of 4 mg/ml and then further diluted in the stress solutions at a 1:1 ratio (e.g. 125 μl plus 125 μl). The final concentrations were 2 mg/ml of the GLP-2 analogues for stress conditions with 0.1 M HCl, 0.01M NaOH, 0.1 M NH4HCO3 and 0.5% H2O2, respectively.
The solutions were incubated at 40° C. in the dark and then diluted in Eluent A to a concentration of 0.5 mg/ml (addition of 750 μl) prior to analyses by RP-HPLC and by LC-MS.
The RP-HPLC analyses were performed on an Agilent Series 1100 HPLC system under control of the ChemStation (Revision A.08.03 [847]) software from Agilent Technologies, Inc. The raw data and the results of the peak integration were deposited on the ChemStore C/S server by the use of Agilent Technologies Revision B01.03 software.
The results are shown in Table 9 as the compound purity measured by RP-HPLC after incubation under stress conditions. This purity is a measure for the remaining intact compound after incubation in stress solutions, relative to the purity measured a T=0.

male C57BL mice = assay: Screening for intestinal growth effects (small intestine and colon mass relative to body weight, small intestine-colon sensitivity index); format: in vivo; conditions: for Small intestine mass relative to [Gly2]GLP-2 / Preferential growth of small intestine versus colon (small intestine-colon sensitivity): 30 nmol/kg s.c. twice daily, ten days; for Small intestine mass relative to [Gly2]GLP-2: equimolar [Gly2]GLP-2; for Preferential growth of small intestine versus colon (small intestine-colon sensitivity): relative to [Gly2]GLP-2; for colon mass relative to body weight, % [Gly2]GLP-2 / small intestine-colon sensitivity index, (SI/Colon)X/(SI/Colon)[Gly2]GLP-2 %: male C57BL mice, 30 nmol/kg s.c. twice daily for ten days; for small intestine-colon sensitivity index, (SI/Colon)X/(SI/Colon)[Gly2]GLP-2 %: third value column
Outline: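 Groups of six mice were dosed s.c. at 30 nmol/kg twice daily for ten days, with vehicle (PBS, pH 7.4) or equimolar [Gly2]GLP-2 as comparators. The sensitivity index was (SI/Colon) of the compound over that of [Gly2]GLP-2, with ≥1.05 counted as small-intestine-selective and ≤0.95 as colon-selective.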

[Gly2, Glu3, Leu10, Ser11, Ala16,24,28]hGLP-2(1-33)-NH2 [Compound 1857]
Stability during acid hydrolysis (in words) [1]: tendency of slightly higher stability | Purity H2O2 0.5% 3 days [1]: 59% | Purity HCl 0.1M 12 days [1]: 86% | Purity NH4HCO3 0.1M 6 days [1]: 96% | Small intestine mass relative to [Gly2]GLP-2 (male C57BL mice): increased small intestine mass relative to [Gly2]GLP-2 | Preferential growth of small intestine versus colon (small intestine-colon sensitivity) (male C57BL mice): preferentially stimulating epithelial growth in the small intestine | colon mass relative to body weight, % [Gly2]GLP-2 (male C57BL mice): 90 % [Gly2]GLP-2 | small intestine-colon sensitivity index, (SI/Colon)X/(SI/Colon)[Gly2]GLP-2 % (male C57BL mice): 130 % [Gly2]GLP-2

[Gly2, Glu3, Ser8,11, Leu10, Ala16,24,28]hGLP-2(1-33)-(Lys)6-NH2 (HGEGSFSSELSTILDALAARDFIAWLIATKITDKKKKKK-NH2) [Compound 1846]
Purity H2O2 0.5% 3 days [1]: 64% | Purity HCl 0.1M 12 days [1]: 70% | Purity NH4HCO3 0.1M 6 days [1]: 82% | Small intestine mass relative to [Gly2]GLP-2 (male C57BL mice): increased small intestine mass relative to [Gly2]GLP-2 | Preferential growth of small intestine versus colon (small intestine-colon sensitivity) (male C57BL mice): supplementary increase in the weight of the small intestine without significant effecting the weight of the colon; also recorded: preferentially stimulating epithelial growth in the small intestine | colon mass relative to body weight, % [Gly2]GLP-2 (male C57BL mice): 102 % [Gly2]GLP-2 | small intestine-colon sensitivity index, (SI/Colon)X/(SI/Colon)[Gly2]GLP-2 % (male C57BL mice): 118 % [Gly2]GLP-2

[Gly2, Glu3, Thr5, Ser8, Leu10, Ala11,16,24,28]hGLP-2(1-33)-(Lys)6-NH2 (HGEGTFSSELATILDALAARDFIAWLIATKITDKKKKKK-NH2) [Compound 1848]
Purity H2O2 0.5% 3 days [1]: 68% | Purity HCl 0.1M 12 days [1]: 63% | Purity NH4HCO3 0.1M 6 days [1]: 93% | Small intestine mass relative to [Gly2]GLP-2 (male C57BL mice): increased small intestine mass relative to [Gly2]GLP-2 | Preferential growth of small intestine versus colon (small intestine-colon sensitivity) (male C57BL mice): supplementary increase in the weight of the small intestine without significant effecting the weight of the colon; also recorded: preferentially stimulating epithelial growth in the small intestine | colon mass relative to body weight, % [Gly2]GLP-2 (male C57BL mice): 93 % [Gly2]GLP-2 | small intestine-colon sensitivity index, (SI/Colon)X/(SI/Colon)[Gly2]GLP-2 % (male C57BL mice): 117 % [Gly2]GLP-2

[Gly2, Glu3, Thr5, Ser8, Leu10, Ala11,16,24,28]hGLP-2(1-33)-NH2 [Compound 1855]
Stability during acid hydrolysis (in words) [1]: tendency of slightly higher stability | Stability under accelerated oxidation (in words) ([1]; 0.5% H2O2, 40° C., 3 days): unexplainable low stability | Purity H2O2 0.5% 3 days [1]: 14% | Purity HCl 0.1M 12 days [1]: 85% | Purity NH4HCO3 0.1M 6 days [1]: 97% | Small intestine mass relative to [Gly2]GLP-2 (male C57BL mice): increased small intestine mass relative to [Gly2]GLP-2 | Preferential growth of small intestine versus colon (small intestine-colon sensitivity) (male C57BL mice): supplementary increase in the weight of the small intestine without significant effecting the weight of the colon; also recorded: preferentially stimulating epithelial growth in the small intestine | colon mass relative to body weight, % [Gly2]GLP-2 (male C57BL mice): 88 % [Gly2]GLP-2 | small intestine-colon sensitivity index, (SI/Colon)X/(SI/Colon)[Gly2]GLP-2 % (male C57BL mice): 120 % [Gly2]GLP-2
